Source: patent publication US10952438B2, “Pesticidal composition and method for controlling pests” (ISHIHARA SANGYO KAISHA, LTD., priority 2017, dated 2021)

Legend:
Type in all cases: in vivo
[1] = system: Comstock mealybug (Pseudococcus comstocki); assay: Test Example 1: test on effects against Comstock mealybug, leaf disk spray; settings: foliar, 168 h, first instar larvae, 7 days after application, read-out: Corrected mortality
From the text: (§1) A plastic cup (diameter 9 cm, height: 4 cm) filled with tap water was covered with a plastic lid (diameter 9 cm, with a hole having a diameter of 0.5 cm at its center portion), and an absorbent cotton sheet (diameter 9 cm) as shown in FIG. 1 was placed thereon. The cut portion of the absorbent cotton sheet was put into the plastic cup through the hole at the center portion of the lid and dipped in the tap water. Filter paper (diameter 9 cm) was placed on the absorbent cotton sheet, and a kidney bean primary leaf was further placed thereon so that the abaxial side faced upward. The kidney bean primary leaf was covered with filter paper (diameter 9 cm, with a hole having a diameter of 3 cm at its center portion) to prepare a leaf disk.
(§2) Thirty first instar larvae of Comstock mealybug (Pseudococcus comstocki) were released on the hole at the center portion of the leaf disk, and the leaf disk was left at rest in a breeding room (25° C., humidity: 60%). Two days later, the number of surviving larvae in the leaf disk was examined, and then a chemical solution at predetermined concentrations of active ingredients was sprayed on the leaf disc by a rotary spraying apparatus (tower sprayers TS-301) in an application amount corresponding to 100 L/10 a, and the leaf disk was left at rest in the breeding room. Seven days after application, the number of surviving larvae was examined, and the difference with the number of surviving larvae before application was taken as the mortality. The same test was conducted using tap water as a negative control, the corrected mortality (%) was calculated in accordance with the formula 1, and the results are shown in Table 1. Further, in accordance with the Colby's formula, the theoretical value (%) was calculated based on the obtained corrected mortality and shown in brackets in Table 1. The composition of the present invention has a synergistic pesticidal effect when the corrected mortality is higher than the theoretical value by the Colby's formula. The test was conducted three times. Corrected mortality (%)=100×((morality in treated area−mortality in control area)/(100−mortality in control area)) Formula 1

[2] = system: Comstock mealybug (Pseudococcus comstocki); assay: Test Example 2: same test as Test Example 1, different flonicamid concentration; settings: 168 h, first instar larvae, 7 days after application, read-out: Corrected mortality
From the text: as §1
as §2, with “Corrected mortality (%)=100×((morality in treated area−mortality in control area)/(100−mortality in control area)) Formula 1” left out

[3] = system: Comstock mealybug (Pseudococcus comstocki); assay: Test Example 3: same test as Test Example 1, different flonicamid and D-limonene concentrations; settings: 168 h, first instar larvae, 7 days after application, read-out: Corrected mortality
From the text: as §1, §2
The test was conducted in the same manner as in Test Example 1 except that the concentrations of flonicamid and D-limonene were different.

SMILES | mortality at 10 ppm ([1]; flonicamid 10 ppm alone) | mortality at 20 ppm ([1]; flonicamid 20 ppm alone) | mortality at 160 ppm ([2]; flonicamid 160 ppm alone) | mortality at 80 ppm ([3]; flonicamid 80 ppm alone) | mortality at 160 ppm ([3]; flonicamid 160 ppm alone) | mortality at 720 ppm ([1]; D-limonene 720 ppm alone) | mortality at 1440 ppm ([1]; D-limonene 1440 ppm alone) | mortality at 720 ppm ([2]; D-limonene 720 ppm alone) | mortality at 1440 ppm ([2]; D-limonene 1440 ppm alone) | mortality at 180 ppm ([3]; D-limonene 180 ppm alone) | mortality at 360 ppm ([3]; D-limonene 360 ppm alone)
N#CCNC(=O)c1cnccc1C(F)(F)F [Flonicamid, N-cyanomethyl-4-trifluoromethyl-3-pyridinecarboxamide] | 7.9% | 16.1% | 68.8% | 25.5% | 55% |  |  |  |  |  | 
C=C(C)[C@H]1CC=C(C)CC1 [D-Limonene, (4R)-p-menth-1,8-diene] |  |  |  |  |  | 7.7% | 27.7% | 4.5% | 21.3% | 0% | 35.1%
